Read-outs that look alike come from different tables or passages of the source.
Tests used:
[1] = tested on: E. coli ATCC 25922; assay: Antibacterial photodynamic inactivation, regular vs hydrogen peroxide stressed bacteria (CFU counts); type: cell-based; conditions: in the dark; 7 with or without H2O2
Protocol: The microorganism used for this study is E. coli ATCC 25922. Stock cultures were preserved at −70° C. using glycerol 10% (v/v) as the cryoprotectant, and the strain was grown in Luria Bertania broth (LB). Bacterial culture was prepared inoculating a single colony from a pure culture. After overnight incubation at 37° C. for 18 h, the culture reached a density of approximately 1×10^9 CFU/mL and it was diluted to 10^6 CFU/mL.
At the end of the irradiation time, 100 μL aliquots were placed in 96 wells from each tube and serially diluted 10-fold in PBS to obtain dilutions of 10^1 to 10^4 fold, in addition to the original concentration, on agar plates to determine CFU. Viability counts were performed at 0 and 1 hour in either dark or light conditions from each dilution, 10 μL aliquots were plated on LB agar. Plates were streaked in triplicate and incubated for 18 h at 37° C. Each experiment was performed at least three times on different days.
To stress the cells we utilized hydrogen peroxide, known to stimulate ROS production in Gram-negative cells.^79,80 We incubated bacteria from the E. coli strain (10^6 colony forming units (CFU)/mL) with 500 nM hydrogen peroxide for 2 hours at 37° C. Following precipitation and resuspension of this bacteria in media with no H2O2, we added compound 7. In parallel, compound 7 was also added to bacteria that were not exposed to H2O2.

[2] = cited from earlier work; for abs λmax / em λmax / Φf (fluorescence quantum yield) / ε (extinction coefficient): acetonitrile, room temperature, from reference 31; for E00 (HOMO-LUMO gap): from reference 54 (1) or 31 (2)
[3] = acetonitrile, room temperature; from reference 31; cited from earlier work
[4] = cited from earlier work; for E^oB^+·/B (reversible oxidation potential): from reference 54 (1) or 31 (2)
[5] = from reference 54 (1) or 31 (2); cited from earlier work
[6] = from reference 54 (1) or 31 (2); cited from earlier work; remark: listed apart in the source
[7] = Intermolecular quenching of ^1O2 phosphorescence by chromanol rings; type: physicochemical; conditions: ^1O2 generated upon irradiation of compound 5, air equilibrated acetonitrile
Source text: To test whether 7 is equally efficient at deactivating ^1O2 as α-tocopherol, we generated ^1O2 upon irradiation of compound 5 and monitored the ^1O2 phosphorescence lifetime in the presence of increasing amounts of either 7 or PMHC (an α-tocopherol analogue lacking the phytyl tail).

[8] = cited from earlier work; for overall singlet oxygen quenching rate constant kq: kq(physical)+kq(chemical), reference 74; for chemical quenching of ^1O2 / physical quenching of ^1O2: share of total quenching
[9] = reference value; cited from earlier work
[10] = Absorption and steady-state fluorescence, fluorescence quantum yield in acetonitrile; type: physicochemical
Protocol: Absorption spectra were recorded using a Hitachi U-2800 UV-vis-NIR spectrophotometer. Luminescence spectra were recorded using a PTI QuantaMaster spectrofluorimeter using 10×10 mm quartz cuvettes and corrected for detector sensitivity.
The steady-state fluorescence spectra were recorded between 500-800 nm (depending on each compound) upon exciting at the wavelength of the absorbance maxima. The excitation and emission slits were tuned according to the fluorescence quantum yield of each BODIPY (i.e. for compound 7 excitation slits were 5 nm and for compound 4 we used 2 nm). Fluorescence was recorded every 1 nm using 0.1 s integration time. For the Fluorescence lifetime measurements, the excitation rate was 10 MHz, and the detection frequency was less than 100 kHz. Photons were collected at the magic angle. The fluorescence decay traces were fit using FluoFit (Picoquant) software. For steady-state and time-resolved fluorescence measurements a quartz cuvette with a 10 mm path length was used and all the solutions were prepared in air equilibrated acetonitrile.
Quantum yields of fluorescence were measured using PM605 in acetonitrile as a reference. Absorption and emission spectra of PM605 and the dye of interest were measured in acetonitrile at five different concentrations. The integrated intensity versus absorbance were then plotted and fitted linearly. Relative quantum yields of fluorescence for the unknown with respect to the standard were obtained from equation 1, where φ, Δ, and n refer, respectively, to the quantum yield, the slope obtained from the above-mentioned plot, and the solvent refractive index for the unknown (x) or standard (st).

[11] = Time-resolved fluorescence (fluorescence lifetime, TCSPC); type: physicochemical; conditions: acetonitrile, room temperature
Protocol: Fluorescence lifetime measurements were carried out using a Picoquant Fluotime 200 time correlated single photon counting (TCSPC) setup employing an LDH-P-C-470 picosecond diode laser (Picoquant) with an excitation wavelength at 466 nm as the excitation source. The laser was controlled by a PDL 800 B picosecond laser driver from Picoquant. ^1HNMR spectra were recorded on a Bruker AV 400 instrument at 400 MHz. ^13CNMR spectra were recorder on a Varian VNMRS 500 instrument at 125 MHz. ESI mass spectra were measured on a Bruker maXis impact. Laser Flash Photolysis (LFP) experiments were carried out in a commercially available Luzchem 212 LFP setup provided with a Tektronix TDS 2000 digitizer for signal capture. A Nd:Yag laser (Continuum model Surelite I-10 using a second harmonic generators, model number SL-SHG-T1) was used for excitation at a wavelength of 532 nm. Phosphorescence experiments were recorded using a Cary Eclipse Fluorescence Spectrophotometer. Singlet Oxygen phosphorescence was recorded with a Hamamatsu NIR detector (peltier cooled at −62.8° C. operating at 800 V, coupled to a grating monochromator) upon excitation with a 532 nm Nd:YAG laser. A customized Luzchem Research LFP-111 system was employed to collect and process the data. The steady-state fluorescence spectra were recorded between 500-800 nm (depending on each compound) upon exciting at the wavelength of the absorbance maxima. The excitation and emission slits were tuned according to the fluorescence quantum yield of each BODIPY (i.e. for compound 7 excitation slits were 5 nm and for compound 4 we used 2 nm). Fluorescence was recorded every 1 nm using 0.1 s integration time. For the Fluorescence lifetime measurements, the excitation rate was 10 MHz, and the detection frequency was less than 100 kHz. Photons were collected at the magic angle. The fluorescence decay traces were fit using FluoFit (Picoquant) software. For steady-state and time-resolved fluorescence measurements a quartz cuvette with a 10 mm path length was used and all the solutions were prepared in air equilibrated acetonitrile.

[12] = Laser flash photolysis: triplet excited state decay and quenching; type: physicochemical
Protocol: The 500 mJ/pulse laser output was attenuated yielding 10 mJ laser pulses of 6 ns in duration. Samples were prepared in acetonitrile. The final absorbance of the BODIPY dyes was 0.1. The concentration was kept low to avoid triplet-triplet annihilation. Each sample was de-oxygenated by purging with argon gas for at least 30 min. Quartz cells containing 10×10 mm path length were used. The decay of the BODIPYs was monitored between 420-440 and 520-550 nm (depending the BODIPY) following the laser excitation. Samples were irradiated with a total of 6 laser shots to acquire the temporal evolution of ΔOD.
A second layer of control was subsequently tested via LFP studies, to monitor the extent to which the trap segment deactivates the triplet excited state of the photosensitizes. […] The two quenchers emulate the trap segments utilized in 7 and 8, respectively.

[13] = ^1O2 quantum yield, photooxidation of DMA (indirect method); type: physicochemical; conditions: consumption of dimethylanthracene, Rose Bengal standard, air equilibrated acetonitrile
Protocol: Solutions of 9,10-dimethylanthracene (DMA, 50 μM) and photosensitizers (compound 3-10) in air equilibrated acetonitrile were irradiated in 10 mm path length quartz cell (3 ml) with a Nd:Yag laser exciting at 532 nm. Laser excitation was performed at 10 Hz, providing one laser output for every discharge of the flashlamp. An irradiation time of 1 s is equivalent to 10 laser pulses. The energy of each pulse was 10 mJ. The kinetics of DMA photooxidation were studied by following the decrease of the absorbance at λ=377 nm. The observed rate constant (kobs) was obtained by a linear least-squares fit of the semilogarithmic plot of ln [DMA]0/[DMA] (see FIG. 14). Quantum yields of ^1O2 production (φΔ^I) were calculated comparing the kobs=kq [^1O2] for the corresponding photosensitizer with that for Rose Bengal, which was used as a reference (φΔ=0.54).^1 Measurements of the sample and the reference under the same conditions afforded φΔ^I for compounds (3-10) by direct comparison of the slope in the linear region of the plots.
For the indirect detection of ^1O2, it is possible to determine the kq value considering that the production of ^1O2 is constant compare with the initial concentration of DMA. According to these, a pseudo first-order kinetic for this reaction is proposed (equations 2 to 5): […]
The conversion of DMA followed pseudo-first order kinetics with the different photosensitizers (see FIG. 14). From equation 5, it was possible to determine kobs and ^1O2.

[14] = ^1O2 quantum yield and lifetime, ^1O2 phosphorescence at 1270 nm (direct method); type: physicochemical
Protocol: The generation of singlet oxygen and its lifetime were determined from ^1O2 phosphorescence decay curves recorded at 1270 nm upon excitation with a 532 nm Nd:YAG laser. A total of 3 laser shots were applied to acquire a trace. […] Quantum yield of ^1O2 production (φΔ^D) were calculated comparing the intensity of ^1O2 phosphorescence at 1270 nm for the corresponding photosensitizer with that recorded for Rose Bengal (φΔ=0.54).^81

OO [Compound H2O2, hydrogen peroxide, reference compound]
colony forming units, dark controls [1]: no effect in the CFU

CC(=O)OCC1=C2C(C)=CC(C)=[N+]2[B-](F)(F)n2c(C)cc(C)c21 [Compound 2, 8-Acetoxymethyl-1,3,5,7-tetramethyl Pyrromethene Fluoroborate]
abs λmax [2]: 515 nm | em λmax [2]: 530 nm | Φf (fluorescence quantum yield) [2]: 0.87 ± 0.02 | ε (extinction coefficient) [2]: 81000 M⁻¹ cm⁻¹ | E00 (HOMO-LUMO gap) [2]: 2.38 eV | kdec (fluorescence decay rate constant) [3]: 15.0 ± 0.2 × 10^7 s^−1 | knr (non-radiative decay rate constant) [3]: 2.0 ± 0.1 × 10^7 s^−1 | krad (radiative rate constant) [3]: 13.1 ± 0.2 × 10^7 s^−1 | E^opc (cathodic peak potential) ([4]; from reference 31): −1.44 | E^oB^+·/B (reversible oxidation potential) [4]: 0.75 | εHOMO [5]: −5.49 ± 0.01 eV | εLUMO [5]: −2.61 ± 0.05 eV | ΔGeT (Singlet), Gibbs free energy for PeT [6]: −0.24 eV

Cc1c(C)c2c(c(C)c1O)CCC(C)(C)O2 [PMHC, 2,2,5,7,8-pentamethyl-6-hydroxy-chroman]
singlet oxygen quenching rate constant kq [7]: 4e+08 M⁻¹ s⁻¹ | overall singlet oxygen quenching rate constant kq [8]: 1.96e+08 M⁻¹ s⁻¹ | chemical quenching of ^1O2 [8]: 5% | physical quenching of ^1O2 [8]: 95%

CC1=CC(C)=[N+]2C1=C(C)c1c(C)cc(C)n1[B-]2(F)F [Compound 1, 1,3,5,7,8-pentamethyl-Pyrromethene Fluoroborate]
abs λmax [2]: 491 nm | em λmax [2]: 498 nm | Φf (fluorescence quantum yield) [2]: 0.81 ± 0.02 | ε (extinction coefficient) [2]: 97000 M⁻¹ cm⁻¹ | E00 (HOMO-LUMO gap) [2]: 2.53 eV | kdec (fluorescence decay rate constant) [3]: 17.8 ± 0.1 × 10^7 s^−1 | knr (non-radiative decay rate constant) [3]: 3.3 ± 0.1 × 10^7 s^−1 | krad (radiative rate constant) [3]: 14.4 ± 0.1 × 10^7 s^−1 | E^oB^+·/B (reversible oxidation potential) [4]: 0.77 | εHOMO [5]: −5.36 ± 0.01 eV | εLUMO [5]: −2.31 ± 0.05 eV | ΔGeT (Singlet), Gibbs free energy for PeT [6]: −0.26 eV

O=C([O-])c1c(Cl)c(Cl)c(Cl)c(Cl)c1-c1c2cc(I)c(=O)c(I)c-2oc2c(I)c([O-])c(I)cc12.[Na+].[Na+] [Rose Bengal]
φΔ of reference standard [9]: 0.54

CC1=C(I)C(C)=[N+]2C1=C(COC(=O)C1(C)CCc3c(C)c(O)c(C)c(C)c3O1)c1c(C)c(I)c(C)n1[B-]2(F)F (racemic) [Compound 8, 8-((±)-6-Hydroxy-2,5,7,8-tetramethylchromane-2-carbonyloxy)-2,6-diiodo-methyl-1,3,5,7-tetramethylpyrromethene Fluoroborate]
drop in φf caused by the trap segment ([10]; 7 compared to reference 4, 8 compared to 5): ca. 2 fold | abs λmax ([10]; acetonitrile, room temperature): 552 nm | em λmax ([10]; acetonitrile, room temperature): 576 nm | Φf (fluorescence quantum yield) ([10]; acetonitrile, room temperature): 0.009 ± 0.002 | ε (extinction coefficient) ([10]; acetonitrile, room temperature): 63000 M⁻¹ cm⁻¹ | kdec (fluorescence decay rate constant) [11]: 555.6 ± 0.6 × 10^7 s^−1 | knr (non-radiative decay rate constant, (1−φf)×kdec) [11]: 551.0 ± 0.5 × 10^7 s^−1 | krad (radiative rate constant, φf×kdec) [11]: 5.0 ± 0.1 × 10^7 s^−1 | increase in kT upon covalent attachment of the chromanol ([12]; 8 compared to its precursor 5): 6 fold | kq (triplet quenching rate constant) Q = PMHC ([12]; Ar saturated acetonitrile): 5.90 ± 0.09 × 10^8 M^−1s^−1 | kT (triplet decay rate constant) Air equilibrated ([12]; acetonitrile, air equilibrated): 4.55 ± 0.02 × 10^6 s^−1 | kT (triplet decay rate constant) Argon Purged ([12]; acetonitrile, argon purged): 9.16 ± 0.05 × 10^4 s^−1 | kq (triplet quenching rate constant) Q = ^3O2 ([12]; acetonitrile, calculated with oxygen solubility 2.42 mM): 1.88 ± 0.02 × 10^9 M^−1s^−1 | ΦΔ^I (singlet oxygen quantum yield, indirect) [13]: 0.46 ± 0.03 | φΔ relative to control compound 5 [14]: ca. ½ | ΦΔ^D (singlet oxygen quantum yield, direct) ([14]; ^1O2 phosphorescence at 1270 nm, air equilibrated acetonitrile): 0.57 ± 0.02 | ^1O2 phosphorescence decay lifetime ([14]; upon photosensitization, air equilibrated acetonitrile): 70 μs

Cc1c(C)c2c(c(C)c1O)CC[C@@](C)(CCC[C@H](C)CCC[C@H](C)CCCC(C)C)O2 [α-tocopherol]
overall singlet oxygen quenching rate constant kq [8]: 2.06e+08 M⁻¹ s⁻¹ | chemical quenching of ^1O2 [8]: 7% | physical quenching of ^1O2 [8]: 93%

Source: patent US9969755B2, “Photodynamic therapy photosensitizers” (The Royal Institution for the Advancement of …, priority 2016, dated 2018)
